According to US20240207203A1, “NOVEL USE” (DSM IP Assets B.V., priority 2021, published 2024):

Tests used:
[1] = system: methane production in rumen liquor; assay: In vitro test for methane production (modified Hohenheim Forage value Test, HFT); type: cell-based; conditions: TMR feed, 8 h at 39° C., average of four to eight experiments
Procedure: In vitro test for methane production: A modified version of the “Hohenheim Forage value Test (HFT)” was used for testing the effect of specific compounds on the rumen functions mimicked by this in-vitro system.
Principle: Feed is gadded into a syringe with a composition of rumen liquor and an appropriate mixture of buffers. The solution is incubated at 39° C. After 8 hours the quantity (and composition) of gas phase produced is measured and put into a formula for conversion.
Sample weighing: The feed stuff (i.e. TMR (44% concentrate, 6% hay, 37% maize silage and 13% grass silage) is sieved to 1 mm and weighed exactly into 64 syringes. 4 of these syringes are the substrate controls, which display the gas production without the effect of the tested compounds. 4 other syringes are positive control (3-NOP, 10 µM). When needed, 4 syringes contain a carrier control (if the test compounds need a carrier). The remaining syringes contain the test substances, by groups of 4 syringes, in the amounts as indicated in table 1.
Extraction of the rumen liquor: 750 ml of rumen liquor are added to approximately 1,400 ml of medium solution under continued agitation and CO2-gassing.
Filling the syringes, incubation and determining gas volumes and VFA values: The diluted rumen fluid (24 ml) is added to the glass syringe. The syringes are then incubated for 8 hours at 39° C. under gentle agitation. After 8 hours, the volume of gas produced is measured, and the percentage of methane in the gas phase is determined by gas chromatography.
The food fermented was artificial TMR (44% concentrate, 6% hay, 37% maize silage and 13% grass silage). Gossypol was obtained from Sigma-Aldrich (G8761), and used at a concentration as outlined in table 1.3-Nitrooxy-propanol (3-NOP) was used at the concentration as outlined in table 1. The respective in vitro data was linked to dosage regimes correlating to the same methane reduction in vivo.

[2] = system: methane production in ruminants; conditions: reported in WO2012/084629; cited from earlier work

| SMILES | Total methane change, found ([1]; single substance at 2.5 μM) | Total methane change, found ([1]; single substance at 5 μM) | Total methane change, found ([1]; single substance at 10 μM) | Reduction of methane production in ruminants (in words) [2] | Total methane change, found ([1]; single substance at 20 μM) | Total methane change, found ([1]; single substance at 100 μM) |
| --- | --- | --- | --- | --- | --- | --- |
| O=[N+]([O-])OCCCO [3-NOP, 3-Nitrooxypropanol] | −12 % vs. control | −54 % vs. control | −98 % vs. control | significantly reduce the methane production | – | – |
| Cc1cc2c(C(C)C)c(O)c(O)c(C=O)c2c(O)c1-c1c(C)cc2c(C(C)C)c(O)c(O)c(C=O)c2c1O [G, Gossypol] | – | −1 % vs. control | −11 % vs. control | – | −15 % vs. control | −69 % vs. control |
